Experimental data from PMC8952364, “Polyphenols as Inhibitors of Antibiotic Resistant Bacteria—Mechanisms Underlying Rutin Interference with Bacterial Virulence” (Pharmaceuticals, 2022).
≈ marks a conversion by molar mass, not a printed value. Read-outs that look alike come from different tables or passages of the source.

Experiments:
[1] = tested on: P. aeruginosa IBRS P001; assay: Antimicrobial microdilution assay (MIC/MBC); type: cell-based, Pseudomonas aeruginosa; settings: Pseudomonas aeruginosa, IBRSP001; for MIC: read-out: MIC
Summary of the method: (§1)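 Polyphenols 0.0039–1 mg/mL, stocks in 30% ethanol; inoculum 0.5 McFarland diluted twenty-fold, mixed 1:10; 24 h, 37 °C. MIC = no visible growth (binocular microscope). Streptomycin positive control, ethanol negative control; triplicate.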

[2] = tested on: P. aeruginosa MMA83; assay: Antimicrobial microdilution assay (MIC/MBC); type: cell-based, Pseudomonas aeruginosa; settings: Pseudomonas aeruginosa, MMA83
Summary of the method: as §1

[3] = tested on: A. baumannii 6077/12; assay: Antimicrobial microdilution assay (MIC/MBC); type: cell-based, Acinetobacter baumannii; settings: Acinetobacter baumannii, 6077/12
Summary of the method: as §1

[4] = tested on: A. baumannii S2/2; assay: Antimicrobial microdilution assay (MIC/MBC); type: cell-based, Acinetobacter baumannii; settings: Acinetobacter baumannii, S2/2
Summary of the method: as §1

[5] = tested on: K. pneumoniae IT977; assay: Antimicrobial microdilution assay (MIC/MBC); type: cell-based, Klebsiella pneumoniae; settings: Klebsiella pneumoniae, IT977
Summary of the method: as §1

[6] = tested on: K. pneumoniae Ni9; assay: Antimicrobial microdilution assay (MIC/MBC); type: cell-based, Klebsiella pneumoniae; settings: Klebsiella pneumoniae, NI9
Summary of the method: as §1

[7] = tested on: 24 h old P. aeruginosa IBRS P001 biofilms; assay: Biofilm eradication, MTT assay (cell viability); type: cell-based, Pseudomonas aeruginosa
Experimental: The impact of rutin on P. aeruginosa IBRS P001 biofilm formation was determined as previously described by estimating the metabolic activity of microbial cells using an MTT assay. […] The supernatants were then ejected and the biofilms washed with PBS. MTT reagent (200 μL, 0.5 mg/mL) was added and the plate was incubated at 37 °C in the dark for 2 h. The resulting dye was dissolved in DMSO and the absorbance was measured at 570 nm in a microtiter plate reader Multiskan™ FC Microplate Photometer, Thermo Scientific™. The inhibition percentage of biofilm cell viability was calculated:%Inhibition = [(A570control − A570sample)/A570control] × 100
The bacterial cells were incubated in TSB enriched with 2% glucose in 96-well plates (Sarstedt, Germany) with adhesive bottom at 37 °C for 24 h. After incubation, wells were washed with PBS, and rutin (MBC–4 MBC) in TSB with 2% glucose was added. Incubation continued at 37 °C for another 24 h. The planktonic cells were removed.
The assays continued as described above for the crystal violet antibiofilm assay for the measurement of biofilm mass, biofilm MTT assay for the interference with cell viability, Congo red binding assay for estimation of exopolysaccharide production, and eDNA assay.

[8] = tested on: lasI; assay: RT-qPCR analysis of QS genes; type: cell-based, Pseudomonas aeruginosa; settings: 0.5 MIC, 0.25 mg/mL, vs untreated control
Experimental: (§2) Reverse transcription-quantitative PCR (RT-qPCR) was performed to reveal the impact of rutin on the P. aeruginosa IBRS P001 quorum sensing (QS) regulatory genes expression. The total RNA was extracted from the P. aeruginosa IBRS P001 test strain (grown for 10 h, 37 °C, aerobically) cultivated in Mueller-Hinton medium and supplemented with rutin (0.250 mg/mL, final concentration) or without it by an RNeasy Mini Kit (Qiagen, Hilden, Germany). The same volume of the ethanol (solvent) was added in the positive control. The total RNA was then treated with DNase I using an Ambion DNA-freeTM Kit (ThermoFisher, Waltham, MA, USA) and reverse transcribed by a Rever-tAid RT Reverse transcription Kit (ThermoFisher, Waltham, MA, USA) according to the manufacturer’s instructions. […] Obtained data were normalized against the ribosomal gene rpsL as an internal control following the 2^−ΔΔCT method. Experiments were done in triplicate.

[9] = tested on: lasR; assay: RT-qPCR analysis of QS genes; type: cell-based, Pseudomonas aeruginosa; settings: 0.5 MIC, 0.25 mg/mL, vs untreated control
Experimental: as §2

[10] = tested on: mvfR; assay: RT-qPCR analysis of QS genes; type: cell-based, Pseudomonas aeruginosa; settings: 0.5 MIC, 0.25 mg/mL, vs untreated control
Experimental: as §2

[11] = tested on: pqsA; assay: RT-qPCR analysis of QS genes; type: cell-based, Pseudomonas aeruginosa; settings: 0.5 MIC, 0.25 mg/mL, vs untreated control
Experimental: as §2

[12] = tested on: rhlI; assay: RT-qPCR analysis of QS genes; type: cell-based, Pseudomonas aeruginosa; settings: 0.5 MIC, 0.25 mg/mL, vs untreated control
Experimental: as §2

[13] = tested on: rhlR; assay: RT-qPCR analysis of QS genes; type: cell-based, Pseudomonas aeruginosa; settings: 0.5 MIC, 0.25 mg/mL, vs untreated control
Experimental: as §2

[14] = tested on: P. aeruginosa IBRS P001; assay: Membrane permeability assay (nucleotide and protein leakage); type: cell-based, Pseudomonas aeruginosa; settings: rutin MIC; absorbance of released nucleic acids (260 nm) and proteins (280 nm) increased after 60 min
Experimental: (§3) The effect of rutin on membrane permeability (nucleotide and protein leakage) was evaluated as described earlier with some modifications. The culture of P. aeruginosa IBRS P001 and MRSA IBRS MRSA 011 was incubated overnight at 37 °C, washed, and suspended in 10 mM PBS in order to achieve the final density of 10^8 CFU/mL. Bacteria were incubated with rutin at a concentration equal to MIC for time intervals 0, 30, 60, and 90 min. Bacteria incubated with PBS were used as control. After incubation the mixture was filtered through a 0.22 μm pore size filter to remove […]. The optical density of the filtrate was measured at 260 and 280 nm with an Agilent/HP 8453 UV-Visible Spectrophotometer (Agilent Technologies, Santa Clara, CA, USA) at room temperature (25 °C).

[15] = tested on: MRSA IBRS MRSA 011; assay: as above; type: cell-based, Staphylococcus aureus; settings: rutin MIC; more significant increase in absorbance at 260 and 280 nm after 90 min
Experimental: as §3

[16] = tested on: P. aeruginosa MTCC 2488; set-up: method as in doi:10.1016/j.foodcont.2018.02.044; settings: 48 h incubation, cited from earlier work
[17] = subcultivation, 24 h at 37 °C, read-out: MBC

C[C@@H]1O[C@@H](OC[C@H]2O[C@@H](Oc3c(-c4ccc(O)c(O)c4)oc4cc(O)cc(O)c4c3=O)[C@H](O)[C@@H](O)[C@@H]2O)[C@H](O)[C@H](O)[C@H]1O [Rutin, rutin]
MIC ([1]; 37 °C, 24 h): 500 µg/mL (≈ 819 µM)
MIC ([1]; restated in the discussion): 500 µg/mL (≈ 819 µM)
MBC [1, 17]: 1000 µg/mL (≈ 1640 µM)
MIC ([2]; 37 °C, 24 h, read-out: MIC): 500 µg/mL (≈ 819 µM)
MBC [2, 17]: 500 µg/mL (≈ 819 µM)
MIC ([3]; 37 °C, 24 h, read-out: MIC): 500 µg/mL (≈ 819 µM)
MBC [3, 17]: 500 µg/mL (≈ 819 µM)
MIC ([4]; 37 °C, 24 h, read-out: MIC): 500 µg/mL (≈ 819 µM)
MBC [4, 17]: 500 µg/mL (≈ 819 µM)
MIC ([5]; 37 °C, 24 h, read-out: MIC): 1000 µg/mL (≈ 1640 µM)
MBC [5, 17]: 1000 µg/mL (≈ 1640 µM)
MIC ([6]; 37 °C, 24 h, read-out: MIC): 1000 µg/mL (≈ 1640 µM)
MBC [6, 17]: 1000 µg/mL (≈ 1640 µM)
viability at 1000 µg/mL ([7]; Pseudomonas aeruginosa, MBC, 1 mg/mL, read-out: viability of cells within the biofilms): 92%
viability of cells within the biofilms ([7]; maximal concentration examined (4 MBC)): 55%
decrease of relative expression [8]: 2.4 times
decrease of relative expression [9]: about 1.7 times
decrease of relative expression [10]: 2.2 times
downregulation of relative mRNA level [11]: 3 fold
downregulation of relative mRNA level [12]: 2.6 fold
decrease of relative expression [13]: about 1.7 times
cell membrane integrity, in words [14]: obstructed P. aeruginosa IBRS P001 cell membrane integrity
cell membrane integrity, in words [15]: disrupted
highest biofilm inhibition ([16]; 400 µg/mL): 45.33%
biofilm inhibition ([16]; sub-MIC concentrations 50–400 µg/mL): up to 50%
